These results are taken from patent US7169932B2 (priority 2001, dated 2007).

SMILES strings stand for the structures. pKi: −log10 of the molar value. A value given as a limit tells only on which side of the number the result lay.

One test concerns the target T1, HIV-1 protease (Q7S) (Human immunodeficiency virus type 1 group M subtype B, UniProt P04585, Q495S).
T1 construct: made in house
Kind of test: HIV-1 Protease RET Assay. It is filed as biochemical. Conditions: Ave. Ki (nM), RET assay, Q7S enzyme, pH 4.8, 37 C. How it is done: Ki's for the inhibitors of HIV-1 protease were determined using a resonance energy transfer (RET) assay. […] This enzyme is first partially purified as inclusion bodies from cell lysate. It is then solublized in 8M urea and passed through a Q-Sepharose column (Pharmacia) for further purification. To refold this protein, samples containing Q7S is dialyzed into 50 mM sodium phosphate pH 7.0, 50 mM NaCl, 10 mM DTT, and 10% glycerol.
The commercially available peptide substrate (Molecular Probes Cat. # H-2930) RE(EDANS)SQNYPIVQK(DABCYL)R is used to assess activity and Ki's. This peptide is cleaved quantitatively by HIV-1 Pr at the Tyr-Pro bond. The EDANS fluorophore absorbs at 340 nm and emits at 490 nm. The reaction is carried out in a 96 well plate in a total volume of 100 μL and is run for 12 minutes at 37 C under steady-state conditions with 5 μM substrate and 2 nM active dimer enzyme concentration. The literature value Km for this substrate and enzyme is 103+/−8 μM (See Matayoshi, et al., “Novel Fluorogenic Substrates for Assaying Retroviral Proteases by Resonance Energy Transfer,” Science 247, 954 (1990)). The buffer for this reaction is 0.1M sodium acetate pH 4.8, 1M NaCl, 1 mM EDTA, 5 mM dithiothreitol, 10% dimethyl sulfoxide and 1 mg/ml bovine serum albumin. Inhibition curves are fit using the Morrison tight binding equation.
As a reminder, the Ki is the equilibrium dissociation constant of an inhibitor or competing ligand from its target. A high value points to lower affinity. Compound `Cc1ccccc1CNC(=O)[C@@H]1[C@@H](C)OCN1C(=O)[C@@H](O)[C@H](Cc1ccccc1)NC(=O)c1cccc(O)c1C` [Example C5, (4S,5R)-3-((2S,3S)-2-Hydroxy-3-{[1-(3-hydroxy-2-methyl-phenyl)-methanoyl]-amino}-4-phenyl-butanoyl)-5-methyl-oxazolidine-4-carboxylic acid 2-methyl-benzylamide] came in with a Ki of 3.2 nM.

As to `Cc1noc(C)c1C(=O)NC(Cc1ccccc1)C(O)C(=O)N1CSC(C)(C)C1C(=O)NCc1ccccc1C(F)(F)F` (stereo not shown) [Example B27, 3,5-Dimethyl-isoxazole-4-carboxylic acid {1-benzyl-3-[5,5-dimethyl-4-(2-trifluoromethyl-benzylcarbamoyl)-thiazolidin-3-yl]-2-hydroxy-3-oxo-propyl}-amide], the inhibition constant (Ki) came out at 3.5 nM.

`CNCCNC(=O)[C@H]1N(C(=O)[C@@H](O)[C@H](Cc2ccccc2)NC(=O)c2cccc(O)c2C)CSC1(C)C` [Example A52, 3-((2S,3S)-2-Hydroxy-3-{[1-(3-hydroxy-2-methyl-phenyl)-methanoyl]-amino}-4-phenyl-butanoyl)-5,5-dimethyl-thiazolidine-4-carboxylic acid (2-methylamino-ethyl)-amide]: the Ki worked out at 37 nM. This Ki lies about 11-fold higher than the previous one.

`Cc1c(O)cccc1C(=O)N[C@@H](Cc1ccccc1)[C@H](O)C(=O)N1COC(C)(C)[C@H]1C(=O)NCC#N` [Example C10, (S)-3-((2S,3S)-2-Hydroxy-3-{[1-(3-hydroxy-2-methyl-phenyl)-methanoyl]-amino}-4-phenyl-butanoyl)-5,5-dimethyl-oxazolidine-4-carboxylic acid cyanomethyl-amide] displayed a Ki of 36 nM.

Regarding `Cc1ccccc1CNC(=O)[C@H]1N(C(=O)[C@@H](O)[C@H](Cc2ccccc2)NC(=O)c2ccnc(Cl)c2Cl)CSC1(C)C` [Example B41, {(1S,2S)-1-Benzyl-3-[(R)-5,5-dimethyl-4-(2-methyl-benzylcarbamoyl)-thiazolidin-3-yl]-2-hydroxy-3-oxo-propyl}-2,3-dichloro-isonicotinamide], affinity was put at a Ki of 0.15 nM.

Compound `Cc1ccccc1CNC(=O)[C@H]1N(C(=O)[C@@H](O)[C@H](Cc2ccccc2)NC(=O)c2ccc(O)cc2C)CSC1(C)C` [Example B39, (R)-3-[(2S,3S)-2-Hydroxy-3-(4-hydroxy-2-methyl-benzoylamino)-4-phenyl-butyryl]-5,5-dimethyl-thiazolidine-4-carboxylic acid 2-methyl-benzylamide] showed a Ki of 0.16 nM. This Ki and that of the compound before are within 1.5-fold of each other.

In turn, `Cc1ccccc1CNC(=O)[C@H]1N(C(=O)[C@@H](O)[C@H](Cc2ccccc2)NC(=O)c2cccnc2)CSC1(C)C` [Example B47, N-{(1S,2S)-1-Benzyl-3-[5,5-dimethyl-4-(2-methyl-benzylcarbamoyl)-thiazolidin-3-yl]-2-hydroxy-3-oxo-propyl}-nicotinamide] showed a Ki of 6.9 nM.

`C=CCNC(=O)[C@H]1N(C(=O)[C@@H](O)[C@H](Cc2ccccc2)NC(=O)c2cccnc2C)CSC1(C)C` [Example B49, N-[(1S,2S)-3-(4-Allylcarbamoyl-5,5-dimethyl-thiazolidin-3-yl)-1-benzyl-2-hydroxy-3-oxo-propyl]-2-methyl-nicotinamide] came in with an inhibition constant Ki of 17.2 nM.

`Cc1ccccc1CNC(=O)C1N(C(=O)[C@@H](O)[C@H](Cc2ccccc2)NC(=O)c2ccccn2)CSC1(C)C` (stereo partly drawn) [Example B45, Pyridine-2-carboxylic acid {(1S,2S)-1-benzyl-3-[5,5-dimethyl-4-(2-methyl-benzylcarbamoyl)-thiazolidin-3-yl]-2-hydroxy-3-oxo-propyl}-amide] came in with a Ki of 19.7 nM.

Turning to `Cc1cc(O)c(C)c(C(=O)N[C@@H](Cc2ccccc2)[C@H](O)C(=O)N2CSC(C)(C)[C@H]2C(=O)NCc2ccccc2C)c1` [Example B43, (R)-3-[(2S,3S)-2-Hydroxy-3-(3-hydroxy-2,5-dimethyl-benzoylamino)-4-phenyl-butyryl]-5,5-dimethyl-thiazolidine-4-carboxylic acid 2-methyl-benzylamide], the Ki came to 0.2 nM.

Turning to `CCCNC(=O)[C@H]1N(C(=O)[C@@H](O)[C@H](Cc2ccccc2)NC(=O)c2cccc(O)c2C)COC1(C)C` [Example C7, (S)-3-((2S,3S)-2-Hydroxy-3-{[1-(3-hydroxy-2-methyl-phenyl)-methanoyl]-amino}-4-phenyl-butanoyl)-5,5-dimethyl-oxazolidine-4-carboxylic acid propylamide], the Ki came to 7.9 nM.

On to `COc1cccc(CNC(=O)[C@H]2N(C(=O)[C@@H](O)[C@H](Cc3ccccc3)NC(=O)c3cccc(F)c3C)CSC2(C)C)c1` [Example B32, (R)-3-((2S,3S)-3-{[1-(3-Fluoro-2-methyl-phenyl)-methanoyl]-amino}-2-hydroxy-4-phenyl-butanoyl)-5,5-dimethyl-thiazolidine-4-carboxylic acid 3-methoxy-benzylamide], for which the inhibitory constant (Ki) worked out at 4.9 nM.

In turn, `Cc1ccccc1CNC(=O)[C@H]1N(C(=O)[C@@H](O)[C@H](Cc2ccccc2)NC(=O)c2ccncc2Cl)CSC1(C)C` [Example B42, {(1S,2S)-1-Benzyl-3-[(R)-5,5-dimethyl-4-(2-methyl-benzylcarbamoyl)-thiazolidin-3-yl]-2-hydroxy-3-oxo-propyl}-3-chloro-isonicotinamide] came in with an inhibitory constant (Ki) of 0.73 nM.

Still in this test, the particulars now being: Ki, table of drawn compounds, unit inferred.
In general, pKi refers to the negative decadic logarithm of the Ki, by convention in mol/L. Take `Cc1c(O)cccc1C(=O)N[C@@H](Cc1ccccc1)[C@H](O)C(=O)N1CSC(C)(C)[C@H]1C(=O)NCc1cccc(C(F)(F)F)c1F`: the pKi is 7.21.

In the case of `CCC(C)CNC(=O)[C@H]1N(C(=O)[C@@H](O)[C@H](Cc2ccccc2)NC(=O)c2cccc(O)c2C)CSC1(C)C` (stereo partly shown), the negative logarithm of the Ki (pKi) was at least 10.00.

`Cc1ccccc1CNC(=O)[C@H]1N(C(=O)[C@@H](O)[C@H](Cc2ccccc2)NC(=O)C2=CCCC2)CSC1(C)C` had a pKi of 8.47.

The compound `Cc1c(O)cccc1C(=O)N[C@@H](Cc1ccccc1)[C@H](O)C(=O)N1CSC(C)(C)C1C(=O)NCCc1ccc(O)cc1` (stereo partly shown) had a negative logarithm of the Ki (pKi) of 7.88.

Turning to `Cc1c(O)cccc1C(=O)N[C@@H](Cc1ccccc1)[C@H](O)C(=O)N1CSC(C)(C)[C@H]1C(=O)NCC(C)C`, the pKi is at least 10.00.

The compound `COc1cccc(C(=O)[C@H]2N(C(=O)[C@@H](O)[C@H](Cc3ccccc3)NC(=O)c3cccc(O)c3C)CSC2(C)C)c1` had a negative-log Ki (pKi) of 8.13.

For the compound `Cc1ccccc1CNC(=O)[C@H]1N(C(=O)[C@@H](O)[C@H](Cc2ccccc2)NC(=O)C2CCCC2)CSC1(C)C`, the pKi was 7.92.

`Cc1ccccc1CNC(=O)[C@H]1N(C(=O)[C@@H](O)[C@H](Cc2ccccc2)NC(=O)c2cccnc2Cl)CSC1(C)C` gave a negative-log Ki (pKi) of 9.12.

Still in this test, the particulars now being: RET assay, Q7S enzyme, pH 4.8, 37 C; read-out: Ave. Ki.
As for `Cc1ccccc1CNC(=O)[C@@H]1CC(F)(F)CN1C(=O)[C@@H](O)[C@H](Cc1ccccc1)NC(=O)c1cccc(O)c1C` [Example C1, (S)-4,4-Difluoro-1-[(2S,3S)-2-hydroxy-3-(3-hydroxy-2-methyl-benzoylamino)-4-phenyl-butyryl]-pyrrolidine-2-carboxylic acid 2-methyl-benzylamide.], the pKi was 9.42.

As to `C=CCCC(=O)[C@H]1N(C(=O)[C@@H](O)[C@H](Cc2ccccc2)NC(=O)c2cccc(O)c2C)CSC1(C)C` [Example D1, N-[(1S,2S)-1-Benzyl-3-((R)-5,5-dimethyl-4-pent-4-enoyl-thiazolidin-3-yl)-2-hydroxy-3-oxo-propyl]-3-hydroxy-2-methyl-benzamide], the negative-log Ki (pKi) is over 11.00.

`Cc1ccccc1CNC(=O)C1N(C(=O)[C@@H](O)[C@H](Cc2ccccc2)NC(=O)c2ccc(O)cn2)CSC1(C)C` (stereo partly drawn) [Example B46, Pyridine-2–5-hydroxy-carboxylic acid{(1S,2S)-1-benzyl-3-[5,5-dimethyl-4-(2-methyl-benzylcarbamoyl)-thiazolidin-3-yl]-2-hydroxy-3-oxo-propyl}-amide]: the negative logarithm of the Ki (pKi) was 7.90.

`Cc1c(O)cccc1C(=O)N[C@@H](Cc1ccccc1)[C@H](O)C(=O)N1CSC(C)(C)[C@H]1C(=O)NCc1ccc2c(c1)OCO2` [Example A22, 3-((2S,3S)-2-Hydroxy-3-{[1-(3-hydroxy-2-methyl-phenyl)-methanoyl]-amino}-4-phenyl-butanoyl)-5,5-dimethyl-thiazolidine-4-carboxylic acid (benzo[1,3]dioxol-5-ylmethyl)-amide]: the negative logarithm of the Ki (pKi) is 9.49.

As for `Cc1ccccc1CNC(=O)[C@H]1N(C(=O)[C@@H](O)[C@H](Cc2ccccc2)NC(=O)N2CC[C@@H](O)C2)CSC1(C)C` [Example B1, 3-(2-hydroxy-3-{[1-(3-hydroxy-pyrrolidin-yl)-methanoyl]-amino}-4-phenyl-butanoyl)-5,5-dimethyl-thiazolidine-4-carboxylic acid-2-methyl-benzylamide], the pKi was 8.60.

Turning to `Cc1c(O)cccc1C(=O)N[C@@H](Cc1ccccc1)[C@H](O)C(=O)N1CSC(C)(C)[C@H]1C(=O)NCc1ccc2c(c1)OC(F)(F)O2` [Example A48, (R)-3-((2S,3S)-2-Hydroxy-3-{[1-(3-hydroxy-2-methyl-phenyl)-methanoyl]-amino}-4-phenyl-butanoyl)-5,5-dimethyl-thiazolidine-4-carboxylic acid (2,2-difluoro-benzo[1,3]dioxol-5-ylmethyl)-amide], the pKi is 9.72.

The same test, now with this note: table of drawn compounds, unit inferred; read-out: Ki.
For the compound `Cc1ccccc1CNC(=O)[C@H]1N(C(=O)[C@@H](O)[C@H](Cc2ccccc2)NC(=O)Cc2c(F)cccc2F)CSC1(C)C`, the negative-log Ki (pKi) was 7.14.
